The text below walks through data of patent publication US7388022B2, “Polysubstituted 1,1-pyridylaminocyclopropanamine compounds” (priority 2005, dated 2008).

The structures appear in SMILES notation. Counter-ions that a name gives are not always drawn. Like-named read-outs stand apart in the source and are kept apart here.

Series [1] relates to object recognition (memorisation). Put plainly: Object recognition in the Wistar rat. It counts as in vivo. The settings on record: 0.3 mg/kg PO, 2nd session 24 hours later. An excerpt: The object recognition test in the Wistar rat (Behav. Brain Res., 1988, 31, 47-59) is based on the spontaneous exploratory activity of the animal and has the characteristics of episodic memory in humans. Sensitive to ageing (Eur. J. Pharmacol., 1997, 325, 173-180), as well as to cholinergic dysfunctions (Pharm. Biochem. Behav., 1996, 5(2), 277-283), this memory test is based on the differential exploration of 2 objects of fairly similar size, one familiar and the other new. Before the test, the animals are accustomed to the environment (enclosure without object). During a 1st session, the rats are placed (for 3 minutes) in an enclosure containing 2 identical objects. The duration of exploration of each object is measured. During the second session (3 minutes), 24 hours later, 1 of the 2 objects is replaced by a new object. The duration of exploration of each object is measured. The assessment criterion is the difference Delta, expressed in seconds, between the exploration times of the new object and the familiar object during the 2nd session.

Series [2] concerns release of acetylcholine in the prefrontal cortex. Put plainly: In vivo measurement of the release of acetylcholine by intra-cortical microdialysis in the conscious Wistar rat. Details: dose or concentration left out as unconfirmed. The settings on record: one hour after administration. How it is done:
The systemic administration of nicotine and nicotinic agonists causes an increase, in vivo, of acetylcholine in various regions of the brain (Neurochem. Res., 1996, 21, 1181-1186; Eur. J. Pharmacol., 1998, 351, 181-188; Br. J. Pharmacol., 1999, 127, 1486-1494). A microdialysis probe is implanted in the median prefrontal cortex of male Wistar rats. Six or seven days after they have been implanted, the probes are perfused with Ringer's solution (NaCl 147 mM, KCl 2.7 mM, CaCl2 1.2 mM, MgCl2 1 mM, neostigmine 20 nM) at a flow rate of 1 μl/min, the animal being free to move. After 2 hours in the animal quarters, the product under test is administered by the intraperitoneal route. A group of control animals receives the solvent used for the product. The dialysates (30 μl) are then collected every 30 minutes for 4 hours in order to measure the cortical extra-synaptic concentrations of acetylcholine by means of HPLC with amperometric detection. The results are expressed in pg of acetylcholine/dialysate, and inter-group comparisons are carried out by means of variance analysis using 2 factors (treatment×time), with measurements being repeated over time.

For series [3], the system named is social recognition (memorisation). Put plainly: Social recognition in the Wistar rat. The format is in vivo. The settings on record: 3 mg/kg IP, 2 hours after administration. An excerpt: Initially described in 1982 (J. Comp. Physiol., 1982, 96, 1000-1006), the social recognition test has subsequently been proposed by various authors (Psychopharmacology, 1987, 91, 363-368; Psychopharmacology, 1989, 97, 262-268) for studying the mnemocognitive effects of new compounds. The test is based on the natural expression of the olfactory memory of the rat and its natural tendency to forget and allows evaluation of memorisation, by recognition of a young congeneric animal, by an adult rat. A young rat (21 days), taken at random, is placed for 5 minutes in the cage housing an adult rat. With the aid of a video device, the experimenter observes the social recognition behaviour of the adult rat and measures its overall duration. The young rat is then removed from the adult rat's cage and is placed in its own cage until the second introduction. The adult rat is given the compound under test by the intraperitoneal route and, after 2 hours, is again brought into the presence (5 minutes) of the young rat. The social recognition behaviour is then observed again and its duration measured. The assessment criterion is the difference (T2−T1), expressed in seconds, between the “recognition” times of the 2 encounters.

For series [4], the target named is T1, type α4β2 central nicotinic receptors (Rattus norvegicus, UniProt P09483+P12390).
T1 construct: from tissue; host or cells: rat brain membranes
Put plainly: Displacement of binding of [3H]-cytisine on type α4β2 nicotinic receptors of rat brain. How it is done: This study, carried out according to the technique described in Molec. Pharmacol., 1990, 39; 9-12, is aimed at determining the affinity of compounds of the present invention for type α4β2 central nicotinic receptors.
Membranes (250 μg/ml) of rat brain are incubated (2 hours, 20° C.) in the presence of a series of concentrations (0.01-10 μM) of each compound of the present invention (diluted starting from a 10 mM stock solution in DMSO) and [^3H]-cytisine (S.A.: 1184 GBq/mmol: 2 nM) in phosphate buffer (NaH2PO4 20 mM, pH 7.4); final volume: 250 μl. The non-specific binding is determined by incubating membranes in the presence of 10 μM of (−)nicotine. The affinity of the compounds of the present invention for type α4β2 central nicotinic receptors is characterised by determination of the Ki.

Series [5] has as its system abdominal cramps caused by PBQ. Nature of the series: Abdominal contractions induced by phenyl-p-benzoquinone (PBQ) in the NMRI mouse. It counts as in vivo. The settings on record: 10 mg/kg IP. The protocol:
Intraperitoneal administration of an alcoholic solution of PBQ causes abdominal cramps in the mouse (Proc. Soc. Exp. Biol., 1957, 95, 729-731). The cramps are characterised by repeated contractions of the abdominal musculature, accompanied by extension of the hind limbs. Most analgesics antagonise these abdominal cramps (Brit. J. Pharmacol. Chem., 1968, 32, 295-310). At t=0 min., the animals are weighed and the compound being studied is administered by the IP route. A group of control animals is given the solvent used for the compound. At t=30 min., an alcoholic solution of PBQ (0.2%) is administered by the IP route in a volume of 0.25 ml/mouse. Immediately after administration of the PBQ, the animals are placed in cylinders of plexiglass (L=19.5 cm; I.D.=5 cm). From t=35 min. to t=45 min., the animals' reaction is observed and the experimenter notes the total number of abdominal cramps per animal. The results are expressed as the percentage inhibition of the number of abdominal cramps measured in the control animals, at the active dose of the compound studied.

In series [6] the target is type α7 central nicotinic receptors (Rattus norvegicus, UniProt Q05941). Nature of the series: biochemical. It counts as binding.
type α7 central nicotinic receptors, sequence (Q05941 23-502): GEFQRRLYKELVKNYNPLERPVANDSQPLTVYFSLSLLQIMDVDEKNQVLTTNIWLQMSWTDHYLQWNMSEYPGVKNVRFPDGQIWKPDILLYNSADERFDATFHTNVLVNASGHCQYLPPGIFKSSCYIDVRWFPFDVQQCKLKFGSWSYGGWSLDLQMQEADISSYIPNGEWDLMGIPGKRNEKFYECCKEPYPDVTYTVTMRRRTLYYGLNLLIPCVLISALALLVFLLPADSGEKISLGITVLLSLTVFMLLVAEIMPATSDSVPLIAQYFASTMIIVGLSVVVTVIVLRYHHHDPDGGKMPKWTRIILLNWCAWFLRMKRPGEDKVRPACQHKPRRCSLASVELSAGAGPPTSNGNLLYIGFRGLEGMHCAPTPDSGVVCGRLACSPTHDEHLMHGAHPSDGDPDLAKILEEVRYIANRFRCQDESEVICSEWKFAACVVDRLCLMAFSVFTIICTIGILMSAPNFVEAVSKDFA

T1 sequence (P09483 31-630): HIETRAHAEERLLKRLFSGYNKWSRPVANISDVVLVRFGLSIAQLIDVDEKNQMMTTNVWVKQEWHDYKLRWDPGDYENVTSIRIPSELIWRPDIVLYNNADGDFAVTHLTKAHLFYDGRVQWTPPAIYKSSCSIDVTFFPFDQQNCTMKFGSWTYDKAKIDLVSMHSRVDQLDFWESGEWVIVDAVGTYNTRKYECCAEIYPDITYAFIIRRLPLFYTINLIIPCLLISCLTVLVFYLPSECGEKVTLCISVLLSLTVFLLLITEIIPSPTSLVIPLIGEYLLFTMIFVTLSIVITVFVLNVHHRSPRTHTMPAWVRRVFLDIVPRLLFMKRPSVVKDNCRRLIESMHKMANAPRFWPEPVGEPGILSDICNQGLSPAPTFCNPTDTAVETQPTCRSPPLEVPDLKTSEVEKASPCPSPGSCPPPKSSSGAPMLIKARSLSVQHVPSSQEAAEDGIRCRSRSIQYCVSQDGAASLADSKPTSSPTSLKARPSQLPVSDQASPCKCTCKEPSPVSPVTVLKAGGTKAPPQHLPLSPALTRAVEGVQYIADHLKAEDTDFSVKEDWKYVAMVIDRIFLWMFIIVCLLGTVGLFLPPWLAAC
T1 sequence (P12390 25-500): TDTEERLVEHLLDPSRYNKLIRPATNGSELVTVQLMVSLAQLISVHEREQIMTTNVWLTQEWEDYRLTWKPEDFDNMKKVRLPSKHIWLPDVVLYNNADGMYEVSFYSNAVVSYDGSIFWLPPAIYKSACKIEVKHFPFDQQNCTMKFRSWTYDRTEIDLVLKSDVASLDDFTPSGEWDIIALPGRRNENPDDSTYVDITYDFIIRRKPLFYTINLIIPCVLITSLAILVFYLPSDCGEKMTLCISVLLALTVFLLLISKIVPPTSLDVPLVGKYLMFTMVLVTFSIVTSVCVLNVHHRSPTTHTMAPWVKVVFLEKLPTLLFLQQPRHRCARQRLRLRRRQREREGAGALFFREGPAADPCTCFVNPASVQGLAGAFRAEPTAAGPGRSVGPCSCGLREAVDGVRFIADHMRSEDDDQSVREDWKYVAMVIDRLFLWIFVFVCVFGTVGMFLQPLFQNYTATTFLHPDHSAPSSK

Consider `CNC1(CN(C)c2cccnc2)CC1.Cl.Cl` [Example 2, N-Methyl-N-{[1-(methylamino)cyclopropyl]methyl}pyridin-3-amine dihydrochloride], for which the melting point fell in the range of 180 to 184 °C. Also, in series [1], the “difference Delta between exploration times of new and familiar object” value turned out to be 4 s. Besides, the “increase in the release of acetylcholine in the prefrontal cortex” value in series [2] is recorded as “+80%”. Also, the “difference (T2−T1) between recognition times” value in series [3] was 29 s. The affinity in series [4], expressed as Ki, was 15 nM. Besides, in series [5], the “reduction of the number of abdominal cramps caused by PBQ” value (from here on “reduction”) is listed as −76%. The affinity in series [6], expressed as Ki, was 8300 nM.
With `CNC1(CNc2cccnc2)CC1.Cl.Cl` [Example 1, N-{[1-(Methylamino)cyclopropyl]methyl}pyridin-3-amine dihydrochloride], the melting point is 190 to 195 °C. The “difference Delta between exploration times of new and familiar object” value in series [1] is on record as 9 s. In addition, in series [2], the “increase in the release of acetylcholine in the prefrontal cortex” value was “+70%”. For the same compound, the “difference (T2−T1) between recognition times” value in series [3] is 36 s. Also, the Ki in series [4] came to 34 nM. The “reduction” value in series [5] is on record as −50%.
`CN(CC1(N(C)C)CC1)c1ccc(Cl)nc1.Cl.Cl`: the melting point is 163 to 166 °C.
Consider `CNC1(CN(C)c2ccc(Cl)nc2)CC1` (as salt: hydrochloride) [Example 10, 6-Chloro-N-methyl-N-{[1-(methylamino)cyclopropyl)methylpyridin-3-aminedihydrochloride], for which the melting point was 133 to 136 °C.
With `CNC1(CNc2ccc(Cl)nc2)CC1.Cl.Cl` [Example 9], in series [5], the “reduction” value is on record as −52%.
Compound `CNC1(CNc2ccc(C)nc2)CC1.Cl.Cl` displayed a melting point of 230 to 232 °C.
Take `CNC1(CN(C)c2ccc(Br)nc2)CC1.O=C(O)/C=C/C(=O)O`: the melting point lay within 146 to 150 °C.
Same read-out and setting: as for `CN(CC1(N)CC1)c1cccnc1.Cl.Cl`, the figure is 218 to 222 °C; as for `CN(C)C1(CNc2cccnc2)CC1.Cl.Cl`, 208 to 210 °C; as for `CN(CC1(N(C)C)CC1)c1cccnc1.Cl.Cl`, 198 to 201 °C.
The compound `CNC1(CN(Cc2ccccc2)c2ccc(Cl)nc2)CC1.Cl.Cl` displayed a melting point of 156 to 157 °C.
Compound `Cl.Cl.NC1(CNc2cccnc2)CC1` [Example 4, N-[(1-Aminocyclopropyl)methyl]pyridin-3-amine dihydrochloride] displayed a melting point of 195 to 199 °C. The “difference (T2−T1) between recognition times” value in series [3] is given as 19 s.
Compound `CN(C)C1(CNc2ccc(Cl)nc2)CC1.Cl.Cl` showed a melting point of 158 to 160 °C.
On the same count and under the same terms, as for `CNC1(CN(C)c2ccc(C)nc2)CC1.Cl.Cl`, the figure is 112 to 115 °C.
Consider `CNC1(CN(C)c2ccc(Cl)nc2)CC1` [Example 10, 6-Chloro-N-methyl-N-{[1-(methylamino)cyclopropyl)methylpyridin-3-aminedihydrochloride], for which, in series [4] ([3H]-cytisine, rat brain membranes, read-out: Ki, type α4β2 central nicotinic receptors), the inhibition constant (Ki) was 16 nM. For the same compound, the “reduction” value in series [5] was −69%.
Compound `CN(C)C1(CN(Cc2ccccc2)c2ccc(Cl)nc2)CC1.Cl` showed a melting point of 190 to 192 °C.

Usually Ki stands for a dissociation constant, usually derived from enzyme kinetics or from competition with a known ligand. In general, melting point refers to the temperature, or range, at which the solid turns liquid.
